The numbers were not newly measured in patent publication US20110246079A1, “INDIVIDUAL 5-FLUOROURACILE DOSE OPTIMIZATION IN FOLFOX TREATMENT” (Centre Regional De Lutte Contre, priority 2008, published 2011), which cites them from elsewhere.

For series [1], the system named is patients. The following applies: 5-FU treatment.
In series [2] the target is T1, dihydropyrimidine dehydrogenase (DPD) (Homo sapiens, UniProt Q12882).
T1 construct: This ubiquitous enzyme is a major factor of 5-FU biodisponibility, since in a subject with normal DPD enzymatic activity; endogenous in cells; host or cells: Subject or patient in vivo (enzyme described as ubiquitous)
T1 sequence (Q12882 4-1025): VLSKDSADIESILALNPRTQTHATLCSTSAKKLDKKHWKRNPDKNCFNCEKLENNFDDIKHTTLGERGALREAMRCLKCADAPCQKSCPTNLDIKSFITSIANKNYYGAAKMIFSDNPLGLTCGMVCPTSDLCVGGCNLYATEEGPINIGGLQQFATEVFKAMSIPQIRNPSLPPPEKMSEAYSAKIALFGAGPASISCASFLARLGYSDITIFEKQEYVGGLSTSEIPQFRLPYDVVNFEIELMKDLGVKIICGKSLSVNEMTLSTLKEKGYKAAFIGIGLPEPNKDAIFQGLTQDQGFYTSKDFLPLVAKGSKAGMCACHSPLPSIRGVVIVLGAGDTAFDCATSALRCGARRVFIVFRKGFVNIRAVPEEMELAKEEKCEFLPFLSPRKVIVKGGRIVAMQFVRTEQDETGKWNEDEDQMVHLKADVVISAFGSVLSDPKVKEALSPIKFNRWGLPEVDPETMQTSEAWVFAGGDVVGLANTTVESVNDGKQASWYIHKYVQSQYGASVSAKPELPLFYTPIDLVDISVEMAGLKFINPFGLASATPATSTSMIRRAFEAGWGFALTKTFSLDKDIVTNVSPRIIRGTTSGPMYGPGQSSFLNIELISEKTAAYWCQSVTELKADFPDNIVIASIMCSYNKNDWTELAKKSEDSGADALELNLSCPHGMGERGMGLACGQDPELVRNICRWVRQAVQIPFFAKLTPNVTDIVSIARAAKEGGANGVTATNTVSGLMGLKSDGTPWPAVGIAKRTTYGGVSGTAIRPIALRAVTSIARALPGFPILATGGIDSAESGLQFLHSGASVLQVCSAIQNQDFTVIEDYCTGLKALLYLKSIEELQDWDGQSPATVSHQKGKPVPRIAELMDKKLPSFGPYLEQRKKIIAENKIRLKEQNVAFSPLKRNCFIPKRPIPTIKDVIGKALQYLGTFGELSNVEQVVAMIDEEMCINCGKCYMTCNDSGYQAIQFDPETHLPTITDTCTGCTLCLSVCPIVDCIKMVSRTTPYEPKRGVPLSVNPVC
The following applies: subject with normal DPD enzymatic activity.

Series [3] deals with 5-FU metabolism. The following applies: in vivo.

With `O=c1[nH]cc(F)c(=O)[nH]1` [5-FU, 5-fluorouracile], in series [1], the “death, treated patients” value is 0.8% and the “very early polyvisceral toxicity, patients” value was 5-8%. For the same compound, the “severe grade 3-4 toxicity” value in series [1] (standard doses) is 20-25%. Further, in series [2], the “administered 5-FU available for / metabolized by the anabolic pathway” value was 20%. The “time for 5-FU plasmatic levels to reach a plateau” value (after the beginning of the 5-FU continuous infusion) was “about 1 hour”. For the setting “in vivo”, the half-life in blood result was “very short”.
As for `O=C1[O][Pt]2([NH][C@@H]3CCCC[C@H]3[NH]2)[O]C1=O` [oxaliplatin], in series [3], the “effect on 5-FU metabolism” value is “inhibits 5-FU metabolism”.
